In PMC2784637 (Biochemistry, 2009):

Target: T1, cyt bc1 (ubihydroquinone:cytochrome c oxidoreductase) (Rhodobacter capsulatus, UniProt D5ANZ2+D5ANZ3)
T1 sequence (D5ANZ3 2-437): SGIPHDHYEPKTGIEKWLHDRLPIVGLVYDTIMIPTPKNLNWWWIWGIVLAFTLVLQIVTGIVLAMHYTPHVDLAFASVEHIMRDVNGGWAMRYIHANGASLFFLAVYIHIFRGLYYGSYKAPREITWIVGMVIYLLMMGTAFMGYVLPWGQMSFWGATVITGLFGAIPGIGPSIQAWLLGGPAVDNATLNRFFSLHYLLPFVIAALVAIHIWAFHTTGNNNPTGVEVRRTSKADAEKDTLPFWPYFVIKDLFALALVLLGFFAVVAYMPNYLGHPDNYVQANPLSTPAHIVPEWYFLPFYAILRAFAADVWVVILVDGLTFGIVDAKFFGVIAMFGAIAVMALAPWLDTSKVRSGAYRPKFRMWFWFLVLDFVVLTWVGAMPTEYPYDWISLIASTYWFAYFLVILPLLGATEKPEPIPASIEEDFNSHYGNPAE
T1 sequence (D5ANZ2 1-191): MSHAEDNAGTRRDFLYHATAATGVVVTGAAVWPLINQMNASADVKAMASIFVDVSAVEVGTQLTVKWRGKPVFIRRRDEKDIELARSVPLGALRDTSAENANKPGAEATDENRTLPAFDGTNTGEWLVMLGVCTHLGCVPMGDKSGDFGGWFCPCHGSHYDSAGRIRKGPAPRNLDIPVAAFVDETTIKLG
T1 sequence (D5ANZ4 22-279 partner): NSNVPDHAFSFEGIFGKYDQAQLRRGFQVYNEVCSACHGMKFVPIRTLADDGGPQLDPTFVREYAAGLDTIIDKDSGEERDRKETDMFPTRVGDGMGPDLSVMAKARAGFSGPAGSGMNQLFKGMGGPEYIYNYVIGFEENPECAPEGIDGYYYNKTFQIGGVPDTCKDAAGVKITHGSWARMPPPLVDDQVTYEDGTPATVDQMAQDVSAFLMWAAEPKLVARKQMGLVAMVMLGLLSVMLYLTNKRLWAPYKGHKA
Assay: light-activated cyt b reduction and cyt c rereduction kinetics
Assay type: biochemical
Details: chromatophore membranes, 10 uM, pH 7.0, Eh 100 mV; Qo site

CO/C(=C/C(N)=O)[C@H](C)[C@H](/C=C/c1csc(-c2csc([C@@H](C)/C=C/C=C/C(C)C)n2)n1)OC [myxothiazol]
light-activated cyt b reduction and cyt c rereduction kinetics: addition of myxothiazol completely abolished the kinetics by displacing the Qo site occupant
